Data from patent publication US20240016933A1, “Methods of Anchoring or Reconstituting Active Molecules on Metabolically Labeled Cells” (The General Hospital Corporation, priority 2020, published 2024).

Legend:
Format in all cases: cell-based
[1] = system: HeLa cells; test: Surface azide labeling of HeLa cells with AzNAM, DBCO-FAM fluorescence read in plate reader; details: AzNAM 10-125 μM for 20 hours, then 10 μM DBCO-FAM for 1 hour
Method: Initially, cells were cultured in a suitable culture vessel such that their level of confluency at the time of addition of the azide-modified sugar, AzNAM, was not more than 80%.
In particular, HeLa cells were plated in 6-well plates (2.5×10^4 cells/well) and incubated for 48 hours in DMEM-10% FBS medium in a standard 5% CO2 atmosphere. Medium from each well was removed, and each well was washed with 2 ml of phosphate buffered saline (PBS), and fresh DMEM-FBS (1 ml) added. Subsequently, varying amounts of AzNAM (solubilized in DMSO) were added to the wells in small (10 μl) volumes to produce the desired final concentrations in the range 10-125 μM. After an additional 20 hours incubation, the medium in each well was removed, and the wells were washed with 2 ml of PBS, followed by addition of 1 ml of PBS. Then, a fluorescent azide reactive molecule, DBCO-FAM (Broadpharm), was directly added to each well to produce a final concentration of 10 μM.
Plates with added DBCO-FAM were protected from bright light and incubated for 1 hour at room temperature. Supernatants in each well were removed, and each well was washed twice with 2 ml of PBS. […] After pelleting and washing in PBS, cells were resuspended in 150 μl of PBS and counted. Defined numbers in 50 μl volumes in a 96-well Blackwell plate (Corning) were assayed for fluorescence in a fluorescent plate reader (Tecan).

[2] = system: HeLa cells; test: Surface azide labeling of HeLa cells with AzNAM, DBCO-FAM fluorescence by flow cytometry; details: AzNAM 125 μM for 20 hours, versus cells receiving no azide-modified sugar
Method: In separate cultures, HeLa cells were added to wells of a 12-well plate at 10,000 cells/well, and cultured for 72 hours under normal conditions. The wells were washed with 1 ml of PBS, and 0.5 ml of DMEM-10% FBS was added. AzNAM was added to a final concentration of 125 μM, with cells receiving no azide-modified sugar as controls. After 20 hours, cells were harvested with CellStripper (250 μl/well), washed with PBS, and subjected to flow analysis.

[3] = system: HeLa cells; test: Placement of trastuzumab mimotope on azide-modified cells, flow analysis; details: AzNAM 100 μM for 24 hours
Method: (§1) Jurkat and HeLa cells were cultured for three days in their optimal media (RPMI-10% FBS/DMEM-10% FBS, respectively) in 6-well plates to reach a state of sub-confluency. AzNAM (from 100 mM DMSO stock) was added to designated wells to a […] of 100 μM. Control wells received equal volumes of DMSO only. After 24 hours, cells were harvested (directly for the non-adherent Jurkat cells, and with Cell Stripper reagent for HeLa cells), and washed in PBS. […] Cells treated with the DBCO-Jmim peptide were then subjected to standard staining with Trastuzumab (BioVision), followed by secondary staining with FITC-conjugated goat-anti-human kappa chain antibody. During the staining procedure, the control washed DBCO-FAM treated cells were kept on ice. Finally, all cells were subjected to flow cytometric analysis.

[4] = system: Jurkat cells; test: as above; details: AzNAM 100 μM for 24 hours
Method: as §1

[5] = then 10 μM DBCO-Jmim for 1 hour, trastuzumab plus FITC goat-anti-human kappa, versus DMSO controls

azido-N-acetylmannosamine [AzNAM]
cell-associated fluorescence (96-well plate format) [1]: cell-associated fluorescence increased as a function of the levels of AzNAM | flow analysis peak shift (DBCO-FAM fluorescence) [2]: marked and well-demarcated peak shifts | fluorescence after metabolic labeling and DBCO-FAM treatment (flow analysis) ([3]; then 10 μM DBCO-FAM for 1 hour): positive fluorescence | staining with trastuzumab (flow analysis) [3, 5]: strong staining with trastuzumab | fluorescence after metabolic labeling and DBCO-FAM treatment (flow analysis) ([4]; then 10 μM DBCO-FAM for 1 hour): positive fluorescence | staining with trastuzumab (flow analysis) [4, 5]: strong staining with trastuzumab
